From patent US11339171B2, “MDM2 inhibitors” (Gan & Lee Pharmaceuticals, priority 2017, dated 2022)
“And” between values parts separate entries of the source, which are not always exact repeats. Equal entries are not always repeated. Where two headings read alike, the source gives them in different places.

Experiments:
MDM2 = target: T1, MDM2 (Homo sapiens, UniProt Q00987); assay: Inhibition test of MDM2-P53 (GST-MDM2, Biotin-P53, Anti-GST-Tb, SA-XL665); format: binding
T1 construct: made in house
Procedure, shortened: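 Compounds, serially diluted 5-fold (twelve concentrations), were shaken for 90 min at 25° C with a mix of GST-MDM2 (4 nM final), Biotin-P53, anti-GST-Tb and SA-XL665. Buffer: 1×PBS, 0.1% BSA, 5 mM DTT, 1 mM AEBSF; signal read on a microplate reader.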

[1] = tested on: human osteosarcoma cell line SJSA-1; assay: Inhibition of proliferation of human osteosarcoma cell line SJSA-1 (DAPI staining, In Cell Analyzer); conditions: Homo sapiens, SJSA-1, 72 h, read-out: IC50 (nM), inhibitory activity on proliferation of human osteosarcoma cell line SJSA-1, SJSA-1, incubated 72 h
[2] = Pharmacokinetics in ICR mice after intravenous and intragastric administration; format: in vivo; conditions: for MRT last: read-out: MRT(0-t); for MRT inf: read-out: MRT(0-∞); for Vd: read-out: Vz
Procedure, shortened: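 Compounds were dissolved at 0.5 mg/ml in DMSO/PEG400/HP-β-CD saline vehicle and given to overnight-fasted male ICR mice, 2 mg/kg by vein or 5 mg/kg by gavage (n=3 each). Plasma was then protein-precipitated, assayed by LC-MS/MS, and PK parameters including oral bioavailability were derived.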

[3] = ICR mice, IV 2 mg/kg, individual animal, 2 mg/kg
[4] = ICR mice, PO 5 mg/kg, individual animal, 5 mg/kg
[5] = male, ICR, mouse, plasma, iv, 2 mg/kg, ICR mice, IV 2 mg/kg, individual animal
[6] = male, ICR, mouse, plasma, iv, 2 mg/kg, ICR mice, IV 2 mg/kg, individual animal, read-out: AUC(0-t)
[7] = male, ICR, mouse, plasma, iv, 2 mg/kg, ICR mice, IV 2 mg/kg, individual animal, read-out: Cmax
[8] = male, ICR, mouse, plasma, iv, 2 mg/kg, ICR mice, IV 2 mg/kg, individual animal, read-out: t1/2 (converted)
[9] = male, ICR, mouse, plasma, iv, 2 mg/kg, ICR mice, IV 2 mg/kg, mean of 3 animals
[10] = male, ICR, mouse, plasma, iv, 2 mg/kg, ICR mice, IV 2 mg/kg, mean of 3 animals, read-out: AUC(0-t)
[11] = male, ICR, mouse, plasma, iv, 2 mg/kg, ICR mice, IV 2 mg/kg, mean of 3 animals, read-out: Cmax
[12] = male, ICR, mouse, plasma, iv, 2 mg/kg, ICR mice, IV 2 mg/kg, mean of 3 animals, read-out: Tmax
[13] = male, ICR, mouse, plasma, iv, 2 mg/kg, ICR mice, IV 2 mg/kg, mean of 3 animals, read-out: t1/2 (converted)
[14] = male, ICR, mouse, plasma, po, 5 mg/kg, ICR mice, PO 5 mg/kg, individual animal
[15] = male, ICR, mouse, plasma, po, 5 mg/kg, ICR mice, PO 5 mg/kg, individual animal, read-out: Cmax
[16] = male, ICR, mouse, plasma, po, 5 mg/kg, ICR mice, PO 5 mg/kg, individual animal, read-out: Tmax
[17] = male, ICR, mouse, plasma, po, 5 mg/kg, ICR mice, PO 5 mg/kg, mean of 3 animals
[18] = male, ICR, mouse, plasma, po, 5 mg/kg, ICR mice, PO 5 mg/kg, mean of 3 animals, read-out: AUC(0-t)
[19] = male, ICR, mouse, plasma, po, 5 mg/kg, ICR mice, PO 5 mg/kg, mean of 3 animals, read-out: Cmax
[20] = male, ICR, mouse, plasma, po, 5 mg/kg, ICR mice, PO 5 mg/kg, mean of 3 animals, read-out: Tmax
[21] = male, ICR, mouse, plasma, po, 5 mg/kg, ICR mice, PO 5 mg/kg, mean of 3 animals, read-out: t1/2 (converted)
[22] = male, ICR, mouse, plasma, po, 5 mg/kg, oral intragastric administration 5 mg/kg, read-out: AUC0-t
[23] = male, ICR, mouse, plasma, po, 5 mg/kg, oral intragastric administration 5 mg/kg, read-out: half-life (converted)
[24] = male, mouse, plasma, ICR mice, PO 5 mg/kg vs IV 2 mg/kg, from mean values, read-out: F* (bioavailability)

T1 sequence (Q00987 whole entry): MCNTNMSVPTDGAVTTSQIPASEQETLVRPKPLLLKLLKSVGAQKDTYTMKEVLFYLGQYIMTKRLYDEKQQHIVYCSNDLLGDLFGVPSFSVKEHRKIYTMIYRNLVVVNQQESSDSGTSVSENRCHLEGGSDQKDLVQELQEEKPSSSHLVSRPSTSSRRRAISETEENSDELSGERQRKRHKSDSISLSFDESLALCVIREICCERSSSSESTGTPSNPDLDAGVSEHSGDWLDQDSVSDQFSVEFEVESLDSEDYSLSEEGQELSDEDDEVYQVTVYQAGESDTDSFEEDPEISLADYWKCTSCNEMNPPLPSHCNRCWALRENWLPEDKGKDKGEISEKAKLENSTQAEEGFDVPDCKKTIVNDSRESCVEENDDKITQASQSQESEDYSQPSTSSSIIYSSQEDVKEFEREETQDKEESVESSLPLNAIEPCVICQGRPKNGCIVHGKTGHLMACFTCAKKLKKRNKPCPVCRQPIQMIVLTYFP

## COc1cc(OC)c(-c2nc3c(n2C(C)C)[C@@]2(C(=O)Nc4cc(Cl)ccc42)N(c2cc(Cl)cnc2C)C3=O)cn1 [Example S-131, (S)-6-chloro-5′-(5-chloro-2-methylpyridin-3-yl)-2′-(4,6-dimethoxypyridin-3-yl)-3′-isopropyl-3′H-spiro[dihydroindole-3,4′-pyrrolo[3,4-d]imidazole]-2,6′(5′H)-dione]
MDM2
  IC50: 1.17 nM
[1]
  IC50: 46.3 nM
[2]; [3]
  AUC(0-t): 1.57923 µg·h/mL and 1.77679 µg·h/mL
  AUC(0-∞): 1.5941 µg·h/mL and 1.78859 µg·h/mL
  CL: 1.255 L/h/kg and 1.118 L/h/kg
  Cmax: 2.02133 µg/mL and 1.99701 µg/mL
  MRT(0-t): 0.90 h and 0.94 h
  MRT(0-∞): 0.96 h and 0.98 h
  Vz: 1.78 L/kg and 1.45 L/kg
  t1/2: 0.98 h and 0.90 h
[2]; [4]
  AUC(0-t): 5.90277 µg·h/mL and 6.83945 µg·h/mL
  AUC(0-∞): 6.00328 µg·h/mL and 7.0525 µg·h/mL
  Cmax: 1.85301 µg/mL and 1.79496 µg/mL
  MRT(0-t): 2.27 h and 2.45 h
  MRT(0-∞): 2.40 h and 2.68 h
  t1/2: 1.28 h and 1.47 h
[2]; [5]
  AUC(0-inf): 1.26 µg·h/mL
  clearance: 1.58 L/h/kg
  MRT last: 0.71 h
  MRT inf: 0.73 h
  Vd: 1.73 L/kg
[2]; [6]
  AUC(0-t): 1.26 µg·h/mL
[2]; [7]
  Cmax: 1.78 µg/mL
[2]; male, ICR, mouse, plasma, iv, 2 mg/kg, ICR mice, IV 2 mg/kg, individual animal, read-out: Tmax
  Tmax: 0.08 h
[2]; [8]
  half-life: 0.76 h
[2]; [9]
  AUC(0-inf): 1.55 µg·h/mL
  clearance: 1.32 L/h/kg
  MRT last: 0.85 h
  MRT inf: 0.89 h
  Vd: 1.65 L/kg
[2]; [10]
  AUC(0-t): 1.54 µg·h/mL
[2]; [11]
  Cmax: 1.93 µg/mL
[2]; [12]
  Tmax: 0.083 h
[2]; [13]
  half-life: 0.88 h
[2]; [14]
  AUC(0-inf): 3.77 µg·h/mL
  MRT last: 1.9 h
  MRT inf: 1.95 h
[2]; male, ICR, mouse, plasma, po, 5 mg/kg, ICR mice, PO 5 mg/kg, individual animal, read-out: AUC(0-t)
  AUC(0-t): 3.74 µg·h/mL
[2]; [15]
  Cmax: 1.44 µg/mL
[2]; [16]
  Tmax: 1 h
[2]; male, ICR, mouse, plasma, po, 5 mg/kg, ICR mice, PO 5 mg/kg, individual animal, read-out: t1/2 (converted)
  half-life: 1.03 h
[2]; [17]
  AUC(0-inf): 5.61 µg·h/mL
  MRT last: 2.21 h
  MRT inf: 2.34 h
[2]; [18]
  AUC(0-t): 5.5 µg·h/mL
[2]; [19]
  Cmax: 1.7 µg/mL
[2]; [20]
  Tmax: 1 h
[2]; [21]
  half-life: 1.26 h
[2]; [22]
  AUC(0-t): 5.5 µg·h/mL
[2]; [23]
  half-life: 1.26 h
[2]; [24]
  bioavailability: 143%

## CCOc1cc(OC)c(-c2nc3c(n2C(C)C)[C@@]2(C(=O)Nc4cc(Cl)ccc42)N(c2cc(Cl)ccc2C)C3=O)cn1 [Example S-72, (S)-6-chloro-5′-(5-chloro-2-methylphenyl)-2′-(6-ethoxy-4-methoxypyridin-3-yl)-3′-isopropyl-3′H-spiro[dihydroindole-3,4′-pyrrolo[3,4-d]imidazole]-2,6′(5′H)-dione]
MDM2
  IC50: 0.9 nM
[1]
  IC50: 5.9 nM
[2]; [3]
  AUC(0-t): 11.80283 µg·h/mL and 14.84737 µg·h/mL
  AUC(0-∞): 12.17458 µg·h/mL and 17.30595 µg·h/mL
  CL: 0.164 L/h/kg and 0.116 L/h/kg
  Cmax: 4.83923 µg/mL and 3.68688 µg/mL
  MRT(0-t): 1.52 h and 1.96 h
  MRT(0-∞): 1.71 h and 2.98 h
  Tmax: 0.08 h and 1.00 h
  Vz: 0.29 L/kg and 0.36 L/kg
  t1/2: 1.23 h and 2.16 h
[2]; [4]
  AUC(0-t): 51.28619 µg·h/mL and 23.99612 µg·h/mL and 26.94123 µg·h/mL
  AUC(0-∞): 51.35103 µg·h/mL and 24.16128 µg·h/mL and 27.58631 µg·h/mL
  Cmax: 7.16086 µg/mL and 6.28971 µg/mL
  MRT(0-t): 2.18 h and 2.66 h
  MRT(0-∞): 2.23 h and 2.84 h
  Tmax: 1.00 h
  t1/2: 2.54 h and 1.13 h and 1.47 h
[2]; [5]
  AUC(0-inf): 11.9 µg·h/mL
  clearance: 0.168 L/h/kg
  MRT last: 1.53 h
  MRT inf: 1.78 h
  Vd: 0.34 L/kg
[2]; [6]
  AUC(0-t): 11.5 µg·h/mL
[2]; [7]
  Cmax: 4.63 µg/mL
[2]; [8]
  half-life: 1.39 h
[2]; [9]
  AUC(0-inf): 13.8 µg·h/mL
  clearance: 0.149 L/h/kg
  MRT last: 1.67 h
  MRT inf: 2.16 h
  Vd: 0.33 L/kg
[2]; [10]
  AUC(0-t): 12.7 µg·h/mL
[2]; [11]
  Cmax: 4.39 µg/mL
[2]; [12]
  Tmax: 0.389 h
[2]; [13]
  half-life: 1.59 h
[2]; [15]
  Cmax: 7.87 µg/mL
[2]; [14]
  MRT last: 3.95 h
  MRT inf: 3.98 h
[2]; [16]
  Tmax: 0.5 h
[2]; [17]
  AUC(0-inf): 34.4 µg·h/mL
  MRT last: 2.93 h
  MRT inf: 3.01 h
[2]; [18]
  AUC(0-t): 34.1 µg·h/mL
[2]; [19]
  Cmax: 7.11 µg/mL
[2]; [20]
  Tmax: 0.67 h
[2]; [21]
  half-life: 1.72 h
[2]; [22]
  AUC(0-t): 34.1 µg·h/mL
[2]; [23]
  half-life: 1.72 h
[2]; male, ICR, mouse, plasma, oral intragastric administration 5 mg/kg, read-out: bioavailability
  bioavailability: 107%
[2]; [24]
  bioavailability: 107%
